Experimental data as given in US20110117189A1, “OPHTHALMIC COMPOSITIONS FOR TREATING PATHOLOGIES OF THE POSTERIOR SEGMENT OF THE EYE” (S.I.F.I. Societa' Industria Farmaceutica Italiana S.P.A., priority 2008, published 2011).

Test: In-vivo pharmacokinetic test: ocular distribution of dexamethasone after single administration to the conjunctival sac (LC/MS/MS)
Set-up: species or system pigmented rabbits
Conditions: treated and non-treated eyes
Description: Dexamethasone concentration in ocular tissues was determined by a LC/MS/MS method.
Two experiments were carried out on male pigmented rabbits weighing 1.8-2.2 kg divided into 2 treatment groups, of which only one eye was treated with: 50 μl of the composition containing dexamethasone sodium phosphate in 1% xanthan base (Group I) or 50 μl of dexamethasone sodium phosphate in solution (Group II). In the first experiment the animals were then killed at the following times: 30, 60, 90, 120, 180 and 240 minutes after treatment (n=6 animals for each time point). In the second experiment the animals were killed at these times: 15, 30 and 60 minutes after treatment (n=4 animals for each time point). The active principle was determined in the aqueous humour, vitreous, retina-choroid and plasma after suitable extraction from the biological tissue, by a LC/MS/MS method.

- Concentrations of dexamethasone in the vitreous: less than 10 ng/ml
Compound: C[C@@H]1C[C@H]2[C@@H]3CCC4=CC(=O)C=C[C@]4(C)[C@@]3(F)[C@@H](O)C[C@]2(C)[C@@]1(O)C(=O)CO [dexamethasone]
